Marks after values point to notes of the source that are not given here.
How the values were obtained:
Male guinea pigs = assay: Antigen-induced bronchospasm in actively sensitized guinea pigs; assay type: in vivo; conditions: for Bronchospasm (percent of the maximum value): sensitized guinea pigs
Protocol: Antiasthmatic effect of the test compounds was studied using an antigen-induced bronchospasm model in actively sensitized guinea pigs according to the Andersson method [Andersson P. Antigen induced bronchial anaphylaxis in actively sensitized guinea pig. Allergy (1980), Vol. 35, pp. 65-71].
Male guinea pigs were sensitized with intramuscular injection of 0.5 ml suspension comprising 20 micrograms ovalbumin (OVA, manufactured by the Sigma company [grade III]) and 100 mg Al(OH)3 per one animal. Anaphylaxis-provoking dose 150-200 µg/kg OVA in 0.1 ml normal saline was intravenously (v. jugularis) injected on day 26 after sensibilization. Bronchospasm induction and measuring external respiration parameters were carried out according to the method described in Yu-Hong L., Barnes P., Rogers D. Inhibition of neurogenic plasma exudation and bronchoconstriction by a K+ channel activator, BRL 38227, in guinea pig airways in vivo. Europ. J. Pharmacol. (?), Vol. 239, pp.257-259]. Measurement of respiration parameters was performed using a transducer (Ugo Basel, model 7020), connected with a cannula and a recorder (Millichrome), recording breathing amplitude. […] Efficacy of compounds was determined by change in bronchospasm value.
Inthal was used as a reference drug that was administered to animals at a dose 5 µg/kg according to the same dosage regimen as the test substances were administered. The control group of animals received equivalent amount of normal saline.
Groups of animals: group 1 - control; group 2 - animals given Inthal; group 3 - animals given oral compound XLIV; group IV - animals given oral compound III; group 5 - animals given intratracheal compound III; group 6 - animals given compound XLIX, group 7 - animals given compound XXXI, group 8 - animals given compound XLVI; group 9 - animals given compound VI, group 10 - animals given compound XLVIII.

[1] = system: hepatic P-450 cytochrome system; assay: Hexenal sleep duration in mice; assay type: in vivo; conditions: CBF1 mice, oral 3 days, control 25.91 ± 1.57
Procedure, shortened: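 Male mice (several inbred/hybrid lines, 18-20 g, n=10) and mongrel male guinea pigs (250-300 g, n=24) given compounds orally in drinking water for three days at 50 and 500 µg/kg. Hexenal given 24 h after last dose ([…]); sleep duration recorded in minutes.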

mongrel rats = assay: Antiischemic activity: necrosis zone after coronary artery occlusion (myocardial infarction); assay type: in vivo; conditions: 4 hours after occlusion, single intraperitoneal immediately after occlusion, 1000 µg/kg
Protocol: Antiischemic activity of a compound was assessed by an integral test, i.e. effect on the necrosis zone area following reproduction of myocardial infarction in mongrel rats weighing 250-300 g.
Effect of a compound on the necrosis zone area was studied in 4 hours after arterial occlusion in rats using a differential indicator method [Sernov L.N., Gatsura V.V. A differential indicator method for determinig ischemic and necrotic zone in experimental myocardial infarction in rats. Bulletin of Experimental Biology and Medicine (1989), No 5, pp. 534-535]. All the painful manipulations were performed on animals under Ethaminal anesthesia (Ethaminal - 40 mg/kg intraperitoneally). Experiment was carried out in 15 hours after the last compound administration. Each group included 8 animals.
Groups of animals: • Group 1 - intact control -administration of normal saline four times. • Groups 2 and 3 - oral administration of the compound III at doses respectively 50 and 500 µg/kg for 4 days. • Group 4 - single intraperitoneal administration of Nicorandil at a dose 1 mg/kg immediately after occlusion.

P-450 and B5 cytochromes = assay: Hepatic content of P-450 and B5 cytochromes (microsomal liver fraction); assay type: in vivo, guinea pigs; conditions: guinea pig liver microsomes; administered three times 72, 48 and 24 hours before
Protocol: Change in hepatic monooxygenase system was studied on mongrel male guinea pigs with initial mass 250-300 g; each group included 12 animals. […]. The content of P-450 and […] cytochromes was measured according to the published method [Omura T., Scato R. The monooxide binding pigment of liver microsomes. 11. Solubilization, purification and properties. J. Chem. (1964), Vol. 239, pp. 2379-2385] in microsomal liver fraction, isolated using differential centrifugation method [Ahokas J., Pelkonen O., Karkin N. Charcaterisation of BP-hydroxylase of Trout-liver. Cancer Res. (1977), Vol. 37, pp. 3737-3743]. The priority method {Izotov M.V., Scherbakov V.M., Devichensky V.M. et al. The method of determining the content of P-450 cytochrome isoenzymes in liver microsomes. The inventor's certificate No 1,488,738. B.I. (1989), No 3.-6.06.09, ICI, 01. - No 33/15, No 33/48]. Microsomal protein content was determined using the modified Lowry method [Hartree E. Determination of protein: a modification of the Lowry method, that gives a linear photometric responces. Ann. Biochem. (1972), Vol. 48, pp. 422-427].

[C^14]-arachidonic acid = Metabolism of [C^14]-arachidonic acid in pulmonary tissue homogenate of treated mice; assay type: in vivo, CBA male mice; conditions: CBA mice lung homogenate; 80 µg/kg for three days
Protocol: Studies were carried out on CBA male mice fed a standard vivarium ration. […] Then animals were sacrified, their lungs were taken out, frozen in liquid nitrogen, homogenized in a glass homogenizer manufactured by the Wheaton company (U.S.A.) at +4°C in 10 volumes 0.05 M Tris-HCl buffer. […] Densitometry of the autoradiochromatograms obtained on the X-ray films X-Omat AR (Kodak, U.S.A.) and HS 11 (ORWO, Germany) were performed on the KS 3 densiscan (Kipp and Zonnen, Holland). Quantative analysis of individual eucosanoids was carried out using radiometry of the fractions obtained with high performance liquid chromatography (the Gilson company HPLC-system, France; the Du Pont company ZORBAX C8 column, U.S.A.) and with elution of spots on TLC-plates.

[2] = 50 µg/kg per os, 72, 48 and 18 hours prior to bronchospasm induction

SMILES: NC(CCC(=O)NCCc1c[nH]c2ccc(O)cc12)C(=O)O [compound XLIX, γ -L-glutamylserotonine]
- Bronchospasm (percent of the maximum value) (Male guinea pigs; [2]): 33.0 9.4* percent of the maximum value
- Hexenal sleep duration (minutes) ([1]; 50 µg/kg): 19.68 ± 2.04** minutes

SMILES: O=C([O-])c1cc(=O)c2c(OCC(O)COc3cccc4oc(C(=O)[O-])cc(=O)c34)cccc2o1.[Na+].[Na+] [Inthal, reference compound]
- decrease in bronchospasm value (Male guinea pigs; as compared with the control values): ~50%
- Bronchospasm (percent of the maximum value) (Male guinea pigs; 5 mg/kg, 72, 48 and 18 hours prior to bronchospasm induction): 40.7 3.4* percent of the maximum value

SMILES: O=C(NCCO[N+](=O)[O-])c1cccnc1 [Nicorandil, reference compound]
- Ischemia zone, percent to the total myocardial mass (mongrel rats): 25,0 ± 1,9%
- Necrosis zone percent to myocardial zone (mongrel rats): 44,3 ± 5,0%
- Necrosis zone, percent to the total myocardial mass (mongrel rats): 11,3 ± 1,6%

SMILES: CCC1(c2ccccc2)C(=O)NC(=O)NC1=O [Phenobarbital, reference compound]
- B5 /P-450 (P-450 and B5 cytochromes): 0.81
- B5 cytochrome nM/mg of protein (P-450 and B5 cytochromes): 1.21 ± 0.10 nM/mg of protein
- P-450B cytochromes nM/mg of protein (P-450 and B5 cytochromes): 0.76 ± 0.08 nM/mg of protein
- P-450B/p-450L (P-450 and B5 cytochromes): 1.02
- P-450 cytochrome nM/mg of protein (P-450 and B5 cytochromes): 1.50 ± 0.09 nM/mg of protein
- 5-HETE+HHT, percent of AA conversion ([C^14]-arachidonic acid): 10.5 ± 0.26% of AA conversion
- 6-keto-PGF1α, percent of AA conversion ([C^14]-arachidonic acid): 4.12 ± 0.12% of AA conversion
- 12-, 15-HETE, percent of AA conversion ([C^14]-arachidonic acid): 27.1 ± 0.11% of AA conversion
- PGE2, percent of AA conversion ([C^14]-arachidonic acid): 3.82 ± 0.14% of AA conversion
- PGF2α, percent of AA conversion ([C^14]-arachidonic acid): 7.91 ± 0.08% of AA conversion
- Phospholipids, percent of AA conversion ([C^14]-arachidonic acid): 8.18 ± 0.21% of AA conversion
- TXB2, percent of AA conversion ([C^14]-arachidonic acid): 6.21 ± 0.18% of AA conversion
- Unmetabolized AA, percent of AA conversion ([C^14]-arachidonic acid): 14.5 ± 0.28% of AA conversion

SMILES: CCCCCC(=O)NCCc1c[nH]c2ccccc12 [compound XXXI, N-HEXANOYLTRYPTAMINE]
- Bronchospasm (percent of the maximum value) (Male guinea pigs; [2]): 39.3 7.6* percent of the maximum value
- Hexenal sleep duration (minutes) ([1]; 50 µg/kg): 12.59 ± 0.88*** minutes
- Hexenal sleep duration (minutes) ([1]; 500 µg/kg): 12.61 ± 1.45*** minutes
